Results from the supplement of paper PMC4862054.
Values joined by “and” are separate entries in the source; they are usually repeats but may differ in a detail not shown here. Identical values can stand only once.

How the values were obtained:
MCF-10A = test: normalised response (% of control), CellTiter-Glo; higher = more viable cells (100 = DMSO, 0 = benzethonium chloride kill control); details: incubation time: 72 h
Protocol: (§1)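 DSRT, 72 h incubation, CellTox Green / CellTiter-Glo readout. Signal is normalised to DMSO and benzethonium chloride controls. Value is the normalised response at the highest dose.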

SK-BR-3 = test: as above; details: incubation time: 72 h
Protocol: as §1

MFM-223 [1] = test: as above; details: incubation time: 72 h
Protocol: as §1

CAL-120 [2] = test: as above; details: incubation time: 72 h
Protocol: as §1

Hs578T [3] = test: as above; details: incubation time: 72 h
Protocol: as §1

HCC1937 [4] = test: as above; details: incubation time: 72 h
Protocol: as §1

CAL-148 [5] = test: as above; details: incubation time: 72 h
Protocol: as §1

HDQ-P1 [6] = test: as above; details: incubation time: 72 h
Protocol: as §1

DU-4475 [7] = test: as above; details: incubation time: 72 h
Protocol: as §1

DU-4475 [8] = test: drug sensitivity score (DSS), CellTiter-Glo (DSS (AUC-based score)); higher = stronger drug effect (viability inhibition or cytotoxicity); extreme values may be limits of the assay; details: incubation time: 72 h
Method in brief: (§2)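 Each compound occupied 5 concentrations in 10-fold steps over its own 10,000-fold range in 384-well plates, into which breast cancer cell lines were seeded as 20 µl suspension. Following 72 h of incubation, CellTox Green fluorescence (485/520 nm) was measured, and CellTiter-Glo luminescence was measured after 10 min at room temperature. Plates were individually normalised to 0.1 % DMSO and a positive kill control. From the area under the fitted dose-response curve, a drug sensitivity score was calculated.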

HCC1143 = test: as above; details: incubation time: 72 h
Method in brief: as §2

CAL-51 = test: normalised viability (% of control), CellTiter-Blue; higher = more viable cells (about 100 = DMSO control); details: 1 nM; incubation time: 72 h
Protocol: (§3)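 DSRT, CellTiter-Blue viability, 72 h incubation. Signal is normalised to DMSO and benzethonium chloride controls. Value is the normalised response at dose 3.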

CAL-85-1 = test: as above; details: 1 nM; incubation time: 72 h
Protocol: as §3

MFM-223 [9] = test: as above; details: 10 nM; incubation time: 72 h
Protocol: as §3

CAL-120 [10] = test: as above; details: 10 nM; incubation time: 72 h
Protocol: as §3

BT-474 = test: as above; details: 10 nM; incubation time: 72 h
Protocol: as §3

Hs578T [11] = test: as above; details: 10 nM; incubation time: 72 h
Protocol: as §3

HCC1599 = test: as above; details: 10 nM; incubation time: 72 h
Protocol: as §3

HCC1937 [12] = test: as above; details: 10 nM; incubation time: 72 h
Protocol: as §3

MDA-MB-436 = test: as above; details: 10 nM; incubation time: 72 h
Protocol: as §3

CAL-148 [13] = test: as above; details: 1 nM; incubation time: 72 h
Protocol: as §3

MDA-MB-453 = test: as above; details: 1 nM; incubation time: 72 h
Protocol: as §3

MDA-MB-468 = test: as above; details: 10 nM; incubation time: 72 h
Protocol: as §3

HDQ-P1 [14] = test: as above; details: 1 nM; incubation time: 72 h
Protocol: as §3

DU-4475 [15] = test: as above; details: 1 nM; incubation time: 72 h
Protocol: as §3

SMILES	normalised response (MCF-10A) [%]	normalised response (SK-BR-3) [%]	normalised response (MFM-223 [1]) [%]	normalised response (CAL-120 [2]) [%]	normalised response (Hs578T [3]) [%]	normalised response (HCC1937 [4]) [%]	normalised response (CAL-148 [5]) [%]	normalised response (HDQ-P1 [6]) [%]	normalised response (DU-4475 [7]) [%]	drug sensitivity score (DU-4475 [8])	drug sensitivity score (HCC1143)	other results
C[C@]12C=CC(=O)C=C1CC[C@@H]1[C@@H]2[C@@H](O)C[C@@]2(C)[C@H]1CC[C@]2(O)C(=O)CO [Prednisolone] (10000 nM)	96.4	96.7	101	76.9	109	101	111	84.7	104	–	–	–
CS(=O)(=O)N1CCN(Cc2cc3nc(-c4cccc5[nH]ncc45)nc(N4CCOCC4)c3s2)CC1 [Pictilisib]	–	–	–	–	–	–	–	–	–	1.25	7.14	–
Cn1cc(CNCC2CCN(c3ncc(C(=O)NO)cn3)CC2)c2ccccc21 [Quisinostat]	–	–	–	–	–	–	–	–	–	16.2	16.7	–
CCC/C=C/C=C/C(=O)O[C@H]1/C(=C/C(=O)OC)C[C@H]2C[C@H]([C@@H](C)O)OC(=O)C[C@H](O)C[C@@H]3C[C@H](OC(C)=O)C(C)(C)[C@](O)(C[C@@H]4C/C(=C/C(=O)OC)C[C@H](/C=C/C(C)(C)[C@]1(O)O2)O4)O3 [Bryostatin 1] (100 nM)	95.7	73.6	104	104	88.6	98.6	107	81.5	97.4	–	–	–
Cc1c(CN2CCN(C(=O)[C@H](C)O)CC2)sc2c(N3CCOCC3)nc(-c3cnc(N)nc3)nc12 [GDC-0980] (10000 nM)	17.8	19.2	26.2	23.2	20.3	29.5	10	10.6	15.7	–	–	–
CNC(=O)c1cc(Oc2ccc(NC(=O)Nc3ccc(Cl)c(C(F)(F)F)c3)cc2)ccn1 [Sorafenib]	–	–	–	–	–	–	–	–	–	0	0	normalised viability (CAL-51): 114% and 99%; normalised viability (CAL-85-1): 96.3% and 109%; normalised viability (MFM-223 [9]): 94.7% and 95%; normalised viability (CAL-120 [10]): 102% and 96%; normalised viability (BT-474): 114% and 99.3%; normalised viability (Hs578T [11]): 90% and 86.3%; normalised viability (HCC1599): 113% and 129%; normalised viability (HCC1937 [12]): 83.9% and 84.5%; normalised viability (MDA-MB-436): 110% and 113%; normalised viability (CAL-148 [13]): 102% and 90%; normalised viability (MDA-MB-453): 103% and 109%; normalised viability (MDA-MB-468): 114% and 97.8%; normalised viability (HDQ-P1 [14]): 105% and 91.4%; normalised viability (DU-4475 [15]): 118% and 131%
Cc1nc(Nc2ncc(C(=O)Nc3c(C)cccc3Cl)s2)cc(N2CCN(CCO)CC2)n1 [Dasatinib] (1000 nM)	24.3	97.1	80.9	48.6	31.9	55.2	103	27.1	95.5	–	–	–
COc1cc(CCc2cc(NC(=O)c3ccc(N4CC(C)NC(C)C4)cc3)n[nH]2)cc(OC)c1 (stereo not drawn) [AZD4547] (1000 nM)	74.9	89.6	53.3	68.2	87.6	95.8	93	93.7	94	–	–	–
Cc1cccc(-c2nn3c(c2-c2ccnc4ccc(C(N)=O)cc24)CCC3)n1 [Galunisertib]	–	–	–	–	–	–	–	–	–	0	0	–
CCN(CC)CCNC(=O)c1c(C)[nH]c(/C=C2\C(=O)Nc3ccc(F)cc32)c1C [Sunitinib] (1000 nM)	66.3	105	81.8	82.6	97.5	91.7	113	86.1	94.2	–	–	–
CC(=O)OC[C@H]1O[C@@H]([S-])[C@H](OC(C)=O)[C@@H](OC(C)=O)[C@@H]1OC(C)=O.CCP(CC)CC.[Au+] [Auranofin]	–	–	–	–	–	–	–	–	–	1.74	5.15	–
Nc1cccc2c1CN(C1CCC(=O)NC1=O)C2=O (stereo not drawn) [Lenalidomide] (10000 nM)	102	98.5	100	93.6	98.1	102	104	93.6	99.3	–	–	–
CC(C)N(CCCNC(=O)Nc1ccc(C(C)(C)C)cc1)C[C@H]1O[C@@H](n2cc(Br)c3c(N)ncnc32)[C@H](O)[C@@H]1O [SGC0946]	–	–	–	–	–	–	–	–	–	0	0	–
CO[C@@H](C(=O)N1Cc2[nH]nc(NC(=O)c3ccc(N4CCN(C)CC4)cc3)c2C1)c1ccccc1 [Danusertib] (10000 nM)	17	85.6	45.6	22.1	46.1	85.3	94.9	44.2	37.3	–	–	–
